These are literature values, as cited in patent US10441593B2, “Treatment of pain associated with dislocation of endometrium” (PREGLEM S.A., priority 2010, dated 2019).

In one data set the test system is liver enzyme. The conditions noted are these: clinical development program; 12.5 mg, 25 mg and 50 mg; cited from earlier work.
A further data set relates to endometriosis. The conditions noted are these: cited from earlier work.

`COCC(=O)[C@@]1(OC(C)=O)CC[C@H]2[C@@H]3CCC4=CC(=O)CCC4=C3[C@@H](c3ccc(N(C)C)cc3)C[C@@]21C` [Proellex]: the “liver enzyme (sign of liver toxicity, DILI)” value in the data set on liver enzyme is recorded as “dose related increase in liver enzyme”. Moreover, the “days of pain compared with baseline” value in the data set with endometriosis (50 mg group, end of the first months of therapy) is listed as “statistically significant reduction in days of pain”. In addition, in the data set with endometriosis (6 month study), the “dose response in treatment of endometriosis” value is listed as “clearly support a dose response”.
